Assay results published in patent US20210115104A1, “AMYLIN ANALOGUES” (Zealand Pharma A/S, priority 2015, published 2021).
*1 amine or outer side, *2 acyl side, *3 side chain or, on linkers, in order; H or OH if unused. Where a SMILES comes first, the peptide text is derived from it. Bridges are numbered along the chain shown (N, C = ends). [ ]: non-standard residue; d: D form. The star is where a group is joined. C20 diacid = O=C(O)CCCCCCCCCCCCCCCCCCC(=O)*; γGlu = O=C(O)[C@H](CCC(=O)[*:2])N[*:1]; Hyp = O=C(O)[C@@H]1C[C@@H](O)CN1; NMeI = CC[C@H](C)[C@H](NC)C(=O)O; Sar = CNCC(=O)O

What was measured:
[1] = Assessment of chemical stability (RP-HPLC normalized purity); type: physicochemical; settings: 7 days, 40° C., Table 1; for Normalized purity after 7 days, 40° C., pH 4: pH 4, 0.2 mg/ml; for Normalized purity after 7 days, 40° C., pH 6: pH 6, 0.2 mg/ml; for Normalized purity after 7 days, 40° C., pH 9: pH 9, 0.2 mg/ml; for Normalized purity after 7 days, 40° C., pH 7.5: pH 7.5, 0.2 mg/ml
In short: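 Purity after 7 days at 40° C is expressed relative to T=0 (set to 100) for each pH. Samples at 0.2 mg/ml, pH 4, 6, 7.5 or 9, analyzed by RP-HPLC with UV 220 nm on C8 (ammonium formate) or C18 (TFA) gradients.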

[2] = Pharmacokinetic (PK) profiling in rats; type: in vivo, rat; design: CI/F (apparent clearance values): unit not given here; settings: Sprague Dawley male rats, single sc 30 nmol/kg
Experimental: Sprague Dawley male rats were given a single subcutaneous (sc) bolus of each peptide to be tested, as specified below. 30 nmol/kg doses of compound were administered. Blood samples were drawn from the tail vein prior to dosing and at 24, 48, 72, 96 and 168 hours after dosing. Blood samples were taken from two rats at each time point, and only 2 blood samples were drawn from each rat, i.e. […] were used for each compound. The rats were euthanized immediately after the last blood sampling by concussion and cervical dislocation.
The dosing vehicle used for each test peptide was a mannitol-containing histidine buffer (pH 7.0). Plasma samples were analyzed after precipitation with ethanol by liquid chromatography mass spectrometry (LC-MS/MS). Mean plasma concentrations were used for calculation of the pharmacokinetic parameters using the non-compartmental approach in Phoenix WinNonlin 6.3.
Plasma terminal elimination half-life (t1/2) was determined as ln(2)/λz, where λz is the magnitude of the slope of the log linear regression of the log concentration versus time profile during the terminal phase. Apparent clearance (CL/F) was determined as dose/AUCinf (sc), where AUCinf is the area under the plasma concentration vs. time curve extrapolated to infinity (AUCinf=AUClast+Clast/λz, where Clast is the last observed plasma concentration).

Q: Which “Normalized purity after 7 days, 40° C., pH 4” value (“Normalized purity … pH 4” below) [1] does the source give for `CC[C@H](C)[C@@H](C(=O)N[C@@H](CC(C)C)C(=O)N[C@@H](CO)C(=O)N[C@@H](CO)C(=O)N[C@H](C(=O)N[C@@H](CCC(=O)O)C(=O)N[C@H](C(=O)NCC(=O)N[C@@H](CO)C(=O)N[C@@H](CC(N)=O)C(=O)N[C@H](C(=O)N1C[C@H](O)C[C@H]1C(N)=O)[C@@H](C)O)C(C)C)[C@@H](C)O)N(C)C(=O)[C@H](C)NC(=O)CN(C)C(=O)[C@H](Cc1ccccc1)NC(=O)[C@H](CO)NC(=O)[C@H](CO)NC(=O)[C@H](CCCNC(=N)N)NC(=O)[C@H](CC(N)=O)NC(=O)[C@H](CC(C)C)NC(=O)[C@H](Cc1ccccc1)NC(=O)[C@H](Cc1c[nH]cn1)NC(=O)[C@H](C)NC(=O)[C@H](CC(C)C)NC(=O)[C@H](CCCNC(=N)N)NC(=O)[C@H](CCC(=O)O)NC(=O)[C@@H](NC(=O)[C@H](C)NC(=O)[C@@H]1CSSC[C@H](NC(=O)[C@H](CCCNC(=N)N)NC(=O)CC[C@H](NC(=O)CCCCCCCCCCCCCCCCCCC(=O)O)C(=O)O)C(=O)NCC(=O)N[C@@H]([C@@H](C)O)C(=O)N[C@@H](C)C(=O)N[C@@H]([C@@H](C)O)C(=O)N1)[C@@H](C)O` [Compound 6, [19CD]-isoGlu-R-C( )-GTAT-C( )-ATERLAHFLNRSSF-Gly(Me)-A-Ile(Me)-LSSTEVGSNT-Hyp-NH2] ({C20 diacid-γGlu}-RCGTATCATERLAHFLNRSSF[Sar]A[NMeI]LSSTEVGSNT[Hyp]-NH2; disulfide 2-7) here?
A: A (A = >90%)

Q: And the “Normalized purity after 7 days, 40° C., pH 6” value (from here on “Normalized purity … pH 6”) [1]?
A: B (B = 70-90%)

Q: And the “Normalized purity after 7 days, 40° C., pH 9” value (shortened to “Normalized purity … pH 9”) [1]?
A: B (B = 70-90%)

Q: And the “CI/F (apparent clearance values)” value [2]?
A: 0.0069

Q: With `CC[C@H](C)[C@@H](C(=O)N[C@@H](CC(C)C)C(=O)N[C@@H](CO)C(=O)N[C@@H](CO)C(=O)N[C@H](C(=O)N[C@@H](CCC(=O)O)C(=O)N[C@H](C(=O)NCC(=O)N[C@@H](CO)C(=O)N[C@@H](CC(N)=O)C(=O)N[C@H](C(=O)N1CCC[C@H]1C(N)=O)[C@@H](C)O)C(C)C)[C@@H](C)O)N(C)C(=O)[C@H](C)NC(=O)CN(C)C(=O)[C@H](Cc1ccccc1)NC(=O)[C@H](CO)NC(=O)[C@H](CO)NC(=O)[C@H](CCCNC(=N)N)NC(=O)[C@H](Cc1c[nH]cn1)NC(=O)[C@H](CC(C)C)NC(=O)[C@H](Cc1ccccc1)NC(=O)[C@H](Cc1c[nH]cn1)NC(=O)[C@H](C)NC(=O)[C@H](CC(C)C)NC(=O)[C@H](CCCNC(=N)N)NC(=O)[C@H](CCC(=O)O)NC(=O)[C@@H](NC(=O)[C@H](C)NC(=O)[C@@H]1CSSC[C@H](NC(=O)[C@H](CCCNC(=N)N)NC(=O)CC[C@H](NC(=O)CCCCCCCCCCCCCCCCCCC(=O)O)C(=O)O)C(=O)NCC(=O)N[C@@H]([C@@H](C)O)C(=O)N[C@@H](C)C(=O)N[C@@H]([C@@H](C)O)C(=O)N1)[C@@H](C)O` [Compound 15, [19CD]-isoGlu-R-C( )-GTAT-C( )-ATERLAHFLHRSSF-Gly(Me)-A-Ile(Me)-LSSTEVGSNTP-NH2] ({C20 diacid-γGlu}-RCGTATCATERLAHFLHRSSF[Sar]A[NMeI]LSSTEVGSNTP-NH2; disulfide 2-7) as the compound, how does the “Normalized purity … pH 4” value [1] read?
A: A (A = >90%)

Q: And the “Normalized purity … pH 6” value [1]?
A: B (B = 70-90%)

Q: What about the “Normalized purity after 7 days, 40° C., pH 7.5” value (“Normalized purity … pH 7.5” below) [1] of the same compound?
A: B (B = 70-90%)

Q: What about the “Normalized purity … pH 9” value [1] of the same compound?
A: B (B = 70-90%)

Q: What about the “CI/F (apparent clearance values)” value [2] of the same compound?
A: 0.0116

Q: With `CC[C@H](C)[C@@H](C(=O)N[C@@H](CC(C)C)C(=O)N[C@@H](CO)C(=O)N[C@@H](CO)C(=O)N[C@H](C(=O)N[C@@H](CCC(=O)O)C(=O)N[C@H](C(=O)NCC(=O)N[C@@H](CO)C(=O)N[C@@H](CO)C(=O)N[C@H](C(=O)N1C[C@H](O)C[C@H]1C(N)=O)[C@@H](C)O)C(C)C)[C@@H](C)O)N(C)C(=O)[C@H](C)NC(=O)CN(C)C(=O)[C@H](Cc1ccccc1)NC(=O)[C@H](CO)NC(=O)[C@H](CO)NC(=O)[C@H](CCCNC(=N)N)NC(=O)[C@H](CCC(N)=O)NC(=O)[C@H](CC(C)C)NC(=O)[C@H](Cc1ccccc1)NC(=O)[C@H](Cc1c[nH]cn1)NC(=O)[C@H](C)NC(=O)[C@H](CC(C)C)NC(=O)[C@H](CCCNC(=N)N)NC(=O)[C@H](CCC(=O)O)NC(=O)[C@@H](NC(=O)[C@H](C)NC(=O)[C@@H]1CSSC[C@H](NC(=O)[C@H](CCCNC(=N)N)NC(=O)CC[C@H](NC(=O)CCCCCCCCCCCCCCCCCCC(=O)O)C(=O)O)C(=O)NCC(=O)N[C@@H]([C@@H](C)O)C(=O)N[C@@H](C)C(=O)N[C@@H]([C@@H](C)O)C(=O)N1)[C@@H](C)O` [Compound 28, [19CD]-isoGlu-R-C( )-GTAT-C( )-ATERLAHFLQRSSF-Gly(Me)-A-Ile(Me)-LSSTEVGSST-Hyp-NH2] ({C20 diacid-γGlu}-RCGTATCATERLAHFLQRSSF[Sar]A[NMeI]LSSTEVGSST[Hyp]-NH2; disulfide 2-7) as the compound, how does the “Normalized purity … pH 4” value [1] read?
A: A (A = >90%)

Q: And the “Normalized purity … pH 6” value [1]?
A: B (B = 70-90%)

Q: What about the “Normalized purity … pH 7.5” value [1] of the same compound?
A: B (B = 70-90%)

Q: What about the “Normalized purity … pH 9” value [1] of the same compound?
A: B (B = 70-90%)

Q: And the “CI/F (apparent clearance values)” value [2]?
A: 0.0128

Q: With `CC[C@H](C)[C@@H](C(=O)N[C@@H](CC(C)C)C(=O)N[C@@H](CO)C(=O)N[C@@H](CO)C(=O)N[C@H](C(=O)N[C@@H](CCC(=O)O)C(=O)N[C@H](C(=O)NCC(=O)N[C@@H](CO)C(=O)N[C@@H](CO)C(=O)N[C@H](C(=O)N1CCC[C@H]1C(N)=O)[C@@H](C)O)C(C)C)[C@@H](C)O)N(C)C(=O)[C@H](C)NC(=O)CN(C)C(=O)[C@H](Cc1ccccc1)NC(=O)[C@H](CO)NC(=O)[C@H](CO)NC(=O)[C@H](CCCNC(=N)N)NC(=O)[C@H](CCC(N)=O)NC(=O)[C@H](CC(C)C)NC(=O)[C@H](Cc1ccccc1)NC(=O)[C@H](Cc1c[nH]cn1)NC(=O)[C@H](C)NC(=O)[C@H](CC(C)C)NC(=O)[C@H](CCCNC(=N)N)NC(=O)[C@H](CCC(=O)O)NC(=O)[C@@H](NC(=O)[C@H](C)NC(=O)[C@@H]1CSSC[C@H](NC(=O)[C@H](CCCNC(=N)N)NC(=O)CC[C@H](NC(=O)CCCCCCCCCCCCCCCCCCC(=O)O)C(=O)O)C(=O)NCC(=O)N[C@@H]([C@@H](C)O)C(=O)N[C@@H](C)C(=O)N[C@@H]([C@@H](C)O)C(=O)N1)[C@@H](C)O` [Compound 34, [19CD]-isoGlu-R-C( )-GTAT-C( )-ATERLAHFLQRSSF-Gly(Me)-A-Ile(Me)-LSSTEVGSSTP-NH2] ({C20 diacid-γGlu}-RCGTATCATERLAHFLQRSSF[Sar]A[NMeI]LSSTEVGSSTP-NH2; disulfide 2-7) as the compound, how does the “Normalized purity … pH 4” value [1] read?
A: A (A = >90%)

Q: And the “Normalized purity … pH 6” value [1]?
A: B (B = 70-90%)

Q: And the “Normalized purity … pH 7.5” value [1]?
A: B (B = 70-90%)

Q: What about the “Normalized purity … pH 9” value [1] of the same compound?
A: B (B = 70-90%)

Q: What about the “CI/F (apparent clearance values)” value [2] of the same compound?
A: 0.0148

Q: For `CC[C@H](C)[C@@H](C(=O)N[C@@H](CC(C)C)C(=O)N[C@@H](CO)C(=O)N[C@@H](CO)C(=O)N[C@H](C(=O)N[C@@H](CCC(=O)O)C(=O)N[C@H](C(=O)NCC(=O)N[C@@H](CO)C(=O)N[C@@H](CO)C(=O)N[C@H](C(=O)N1CCC[C@H]1C(N)=O)[C@@H](C)O)C(C)C)[C@@H](C)O)N(C)C(=O)[C@H](C)NC(=O)CN(C)C(=O)[C@H](Cc1ccccc1)NC(=O)[C@H](CO)NC(=O)[C@H](CO)NC(=O)[C@H](CCCNC(=N)N)NC(=O)[C@H](CCC(=O)O)NC(=O)[C@H](CC(C)C)NC(=O)[C@H](Cc1ccccc1)NC(=O)[C@H](Cc1c[nH]cn1)NC(=O)[C@H](C)NC(=O)[C@H](CC(C)C)NC(=O)[C@H](CCCNC(=N)N)NC(=O)[C@H](CCC(=O)O)NC(=O)[C@@H](NC(=O)[C@H](C)NC(=O)[C@@H]1CSSC[C@H](NC(=O)[C@H](CCCNC(=N)N)NC(=O)CC[C@H](NC(=O)CCCCCCCCCCCCCCCCCCC(=O)O)C(=O)O)C(=O)NCC(=O)N[C@@H]([C@@H](C)O)C(=O)N[C@@H](C)C(=O)N[C@@H]([C@@H](C)O)C(=O)N1)[C@@H](C)O` [Compound 36, [19CD]-isoGlu-R-C( )-GTAT-C( )-ATERLAHFLERSSF-Gly(Me)-A-Ile(Me)-LSSTEVGSSTP-NH2] ({C20 diacid-γGlu}-RCGTATCATERLAHFLERSSF[Sar]A[NMeI]LSSTEVGSSTP-NH2; disulfide 2-7), which “Normalized purity … pH 4” value [1] is on record?
A: A (A = >90%)

Q: And the “Normalized purity … pH 6” value [1]?
A: A (A = >90%)

Q: What about the “Normalized purity … pH 7.5” value [1] of the same compound?
A: B (B = 70-90%)

Q: And the “Normalized purity … pH 9” value [1]?
A: B (B = 70-90%)

Q: And the “CI/F (apparent clearance values)” value [2]?
A: 0.0117

Q: What about the half-life ([2]; rat, plasma, read-out: Plasma terminal elimination half-life t1/2 (converted)) of the same compound?
A: 25.7 h
